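A five-concentration, 48-hour dose response in 96-well plates underlies each endpoint, interpolated linearly between surrounding concentrations. GI50 marks 50% less growth. TGI: concentration producing complete growth inhibition.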
Columns and labels:
Assay in all cases: NCI-60 cell line screen, 48 h
T-47D breast = system: T-47D breast
BT-549 breast = system: BT-549 breast
MDA-MB-435 = system: MDA-MB-435
HS 578T breast = system: HS 578T breast
MDA-N = system: MDA-N

SMILES	GI50 (T-47D breast) [µM]	TGI (T-47D breast) [µM]	GI50 (BT-549 breast) [µM]	TGI (BT-549 breast) [µM]	GI50 (MDA-MB-435) [µM]	TGI (MDA-MB-435) [µM]	GI50 (HS 578T breast) [µM]	TGI (HS 578T breast) [µM]	GI50 (MDA-N) [µM]	TGI (MDA-N) [µM]
O=C1c2cccnc2C(=O)c2nc3cc(N4CCN(C5CC5)CC4)ccc3nc21	2.16	6.34	1.04	2.38	0.169	0.328	0.37	3.18		
COc1ccc2c(c1)/C(=C\c1c(C)nc3sccn13)C(=O)N2	1.98	> 67.2		> 82.9			0.224	15.2		
COc1ccc(-c2c3c(N)nc(-c4ccncc4)nc3nc3c2c(C)nn3-c2ccccc2)cc1	3.96	> 100	41.5	> 100	5.29	> 100	16.5	> 100		
COc1cc2c(c(OC)c1)C1c3ccccc3NC(=O)N1CC2 (stereo not drawn)	5.59	> 100	6.24	80.7			6.3	> 100		
COc1ccc(/C(C#N)=C/c2ccccc2OC)cc1	10	> 100	5.64	> 100	1.95	5.72	14.3	> 100		
Nc1nc2c(c3ncncc13)C(c1cccc(C(F)(F)F)c1)Cc1ncncc1-2 (stereo not drawn)	4.15	82.9	4.08	21.5			4.71	45.9		
CCCCCCCCCCCCCCCCN1CC2CCCCC2C1 (stereo not drawn)			11.3	24.6	8.57	24.3	11.8	30.5		
CN1CCC(n2cnc(-c3ccc(F)cc3)c2-c2ccnc(NCCO)n2)CC1	> 25	> 25	> 25	> 25	11.5	> 25	> 25	> 25		
COc1ccc(-c2nc3sc4c(c3c(=O)[nH]2)CCCCCC4)cc1			5.4	> 33.2	0.107	0.838	1.78	> 33.2		
CC(CCC(=O)O)[C@H]1CCC2[C@@H]3CC[C@@H]4CC(O)CC[C@]4(C)C3CC[C@@]21C (stereo partly drawn)	33.7	> 100	53.9	> 100	37.5	> 100			60.6	> 100
COC(=O)[C@@]1(C)CC[C@]2(C)CC[C@]3(C)C4=CC=C5C(=CC(=O)C(O)=C5C)[C@]4(C)[C@@H](O)C[C@@]3(C)[C@@H]2C1	3.04	15.9	10.5	22.3	10.6	21.5	15.1	38		
Nc1ccccc1C#C/C=C\C#Cc1cccs1	17.4	48.2	12.2	28.7	2.81	12.2	15.2	41.8		
CCCCC(CC)CN=C(N)NC(N)=NCCCCCCN=C(N)NC(N)=NCC(CC)CCCC (stereo not drawn)	2.21	4.9								
CC(C)c1cc(-c2n[nH]c(=O)n2-c2ccc3c(ccn3C)c2)c(O)cc1O	< 0.0287	34.5	1.87	44.3	< 0.0191	15.6	0.682	90.1		
COc1cc(C2CC(c3ccc4c(c3)OCO4)=NN2C=O)cc(OC)c1OC (stereo not drawn)	3.34	> 100	5.21	> 100	0.26	1.13	2.43	28.5		
OC(c1cc(-c2ccccc2)nc2ccc(Cl)cc12)C1CCCCN1 (stereo not drawn)	2.51	5.47	5.82	18.7	1.73	3.29	3.37	11.7		
COc1ccc(-c2csc(N(C(=O)N3CCN(c4cc5c(cc4F)c(=O)c(C(=O)O)cn5C4CC4)CC3)c3ccccc3)n2)cc1	2.65	40.7	1.6	7.63	3.51	> 100	1.48	> 100		
COC(=O)[C@H](C[C@H](Cc1ccccc1)NC(=O)c1csc([C@@H](C[C@H](C(C)C)N(C)C(=O)[C@@H](NC(=O)[C@H]2CCCCN2C)C(C)C)OC(C)=O)n1)NC(=O)OCc1ccccc1	< 0.0009	> 9	< 0.0009	0.0689	< 0.0009	< 0.0009	< 0.0009	> 4.93		
Cc1ccccc1[P+](Cc1ccccc1)(c1ccccc1)c1ccccc1			2.4	11.5	0.601	3.71	1.83	11.7		

— PubChem BioAssay (NCI)
